The source made the active and inactive calls.
What was measured:
[1] = target: Peroxisome proliferator-activated receptor gamma/Nuclear receptor coactivator 1 (Homo sapiens, UniProt P37231); assay: (§1) TR-FRET dose response biochemical High Throughput Screening assay for agonists of the steroid receptor coactivator 1 (SRC-1) recruitment by the peroxisome proliferator-activated receptor gamma (PPAR gamma): non-selective agonists. [Related pubchem assays (depositor defined):AID1300, AID1808, AID504735, AID631]; type: protein assay
[2] = target: Peroxisome proliferator-activated receptor gamma/Nuclear receptor coactivator 3 (Homo sapiens, UniProt P37231); assay: as §1, with “3 (SRC-3)” for “1 (SRC-1)”, “assays: 1301 (Confirmation screen.), 1048 (Primary screen.)]” for “assays (depositor defined):AID1300, AID1808, AID504735, AID631]”; type: functional
Peroxisome proliferator-activated receptor gamma/Nuclear receptor coactivator 3, sequence (P37231 whole entry): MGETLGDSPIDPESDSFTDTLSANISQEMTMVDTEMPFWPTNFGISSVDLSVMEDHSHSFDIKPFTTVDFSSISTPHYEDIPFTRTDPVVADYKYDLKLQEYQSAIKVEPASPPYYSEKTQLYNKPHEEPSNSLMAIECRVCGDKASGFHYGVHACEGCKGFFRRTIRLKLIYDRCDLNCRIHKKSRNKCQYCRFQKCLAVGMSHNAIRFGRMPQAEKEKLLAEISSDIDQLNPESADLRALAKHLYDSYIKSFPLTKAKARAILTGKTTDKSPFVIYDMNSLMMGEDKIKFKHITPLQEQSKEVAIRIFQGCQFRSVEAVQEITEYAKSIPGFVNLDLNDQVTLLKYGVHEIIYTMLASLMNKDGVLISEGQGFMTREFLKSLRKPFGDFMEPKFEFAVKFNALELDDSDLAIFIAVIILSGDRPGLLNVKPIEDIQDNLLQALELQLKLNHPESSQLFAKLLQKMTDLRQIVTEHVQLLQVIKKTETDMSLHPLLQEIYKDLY
Peroxisome proliferator-activated receptor gamma/Nuclear receptor coactivator 3, sequence (Q9Y6Q9 whole entry, further chain): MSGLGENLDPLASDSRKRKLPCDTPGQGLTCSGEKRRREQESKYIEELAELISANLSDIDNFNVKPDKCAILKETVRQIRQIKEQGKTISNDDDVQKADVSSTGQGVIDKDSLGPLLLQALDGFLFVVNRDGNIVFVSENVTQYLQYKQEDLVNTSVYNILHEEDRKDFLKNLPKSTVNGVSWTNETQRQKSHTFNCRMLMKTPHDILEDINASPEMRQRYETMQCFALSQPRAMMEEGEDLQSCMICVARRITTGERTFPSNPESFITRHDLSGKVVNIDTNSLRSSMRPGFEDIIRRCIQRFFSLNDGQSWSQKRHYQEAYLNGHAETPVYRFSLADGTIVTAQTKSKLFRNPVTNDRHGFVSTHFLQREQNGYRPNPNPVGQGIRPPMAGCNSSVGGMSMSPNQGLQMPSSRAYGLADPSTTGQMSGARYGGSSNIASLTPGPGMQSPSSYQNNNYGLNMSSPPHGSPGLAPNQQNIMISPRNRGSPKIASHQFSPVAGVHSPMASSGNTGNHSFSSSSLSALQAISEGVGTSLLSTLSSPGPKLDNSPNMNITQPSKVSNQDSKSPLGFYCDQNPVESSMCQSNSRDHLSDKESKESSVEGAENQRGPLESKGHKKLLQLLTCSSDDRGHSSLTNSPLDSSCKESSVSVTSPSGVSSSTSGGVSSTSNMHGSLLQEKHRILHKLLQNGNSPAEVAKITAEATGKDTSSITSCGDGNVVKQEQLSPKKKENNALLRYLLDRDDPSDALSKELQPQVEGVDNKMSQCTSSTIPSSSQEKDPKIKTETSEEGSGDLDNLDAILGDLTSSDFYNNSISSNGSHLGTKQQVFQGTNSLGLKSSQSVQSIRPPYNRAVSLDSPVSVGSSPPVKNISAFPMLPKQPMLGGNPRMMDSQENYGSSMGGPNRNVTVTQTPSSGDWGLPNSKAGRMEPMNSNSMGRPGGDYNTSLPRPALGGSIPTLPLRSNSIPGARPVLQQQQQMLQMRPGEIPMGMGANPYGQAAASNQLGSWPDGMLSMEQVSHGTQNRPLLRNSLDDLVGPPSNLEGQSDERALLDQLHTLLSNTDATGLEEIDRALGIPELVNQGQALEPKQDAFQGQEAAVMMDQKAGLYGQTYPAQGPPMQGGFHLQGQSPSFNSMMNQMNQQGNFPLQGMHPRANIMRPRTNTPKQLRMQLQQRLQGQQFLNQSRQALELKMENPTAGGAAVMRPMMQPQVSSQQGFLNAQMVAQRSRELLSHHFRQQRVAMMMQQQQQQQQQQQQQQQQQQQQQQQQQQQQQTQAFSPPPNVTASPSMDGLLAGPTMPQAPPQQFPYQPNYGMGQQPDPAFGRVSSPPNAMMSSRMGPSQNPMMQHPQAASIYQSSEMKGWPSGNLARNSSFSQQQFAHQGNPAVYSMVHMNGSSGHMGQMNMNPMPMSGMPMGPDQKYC

[3] = target: Peroxisome proliferator-activated receptor gamma/Nuclear receptor coactivator 2 (Homo sapiens, UniProt P37231); assay: TR-FRET dose response biochemical High Throughput Screening assay for agonists of the steroid receptor coactivator 2 (SRC-2) recruitment by the peroxisome proliferator-activated receptor gamma (PPAR gamma): non-selective agonists. [Related pubchem assays: 1297, 1032 ]; type: functional
Peroxisome proliferator-activated receptor gamma/Nuclear receptor coactivator 2, sequence (P37231 whole entry): as the sequence (P37231 whole entry) above
Peroxisome proliferator-activated receptor gamma/Nuclear receptor coactivator 2, sequence (Q15596 whole entry, further chain): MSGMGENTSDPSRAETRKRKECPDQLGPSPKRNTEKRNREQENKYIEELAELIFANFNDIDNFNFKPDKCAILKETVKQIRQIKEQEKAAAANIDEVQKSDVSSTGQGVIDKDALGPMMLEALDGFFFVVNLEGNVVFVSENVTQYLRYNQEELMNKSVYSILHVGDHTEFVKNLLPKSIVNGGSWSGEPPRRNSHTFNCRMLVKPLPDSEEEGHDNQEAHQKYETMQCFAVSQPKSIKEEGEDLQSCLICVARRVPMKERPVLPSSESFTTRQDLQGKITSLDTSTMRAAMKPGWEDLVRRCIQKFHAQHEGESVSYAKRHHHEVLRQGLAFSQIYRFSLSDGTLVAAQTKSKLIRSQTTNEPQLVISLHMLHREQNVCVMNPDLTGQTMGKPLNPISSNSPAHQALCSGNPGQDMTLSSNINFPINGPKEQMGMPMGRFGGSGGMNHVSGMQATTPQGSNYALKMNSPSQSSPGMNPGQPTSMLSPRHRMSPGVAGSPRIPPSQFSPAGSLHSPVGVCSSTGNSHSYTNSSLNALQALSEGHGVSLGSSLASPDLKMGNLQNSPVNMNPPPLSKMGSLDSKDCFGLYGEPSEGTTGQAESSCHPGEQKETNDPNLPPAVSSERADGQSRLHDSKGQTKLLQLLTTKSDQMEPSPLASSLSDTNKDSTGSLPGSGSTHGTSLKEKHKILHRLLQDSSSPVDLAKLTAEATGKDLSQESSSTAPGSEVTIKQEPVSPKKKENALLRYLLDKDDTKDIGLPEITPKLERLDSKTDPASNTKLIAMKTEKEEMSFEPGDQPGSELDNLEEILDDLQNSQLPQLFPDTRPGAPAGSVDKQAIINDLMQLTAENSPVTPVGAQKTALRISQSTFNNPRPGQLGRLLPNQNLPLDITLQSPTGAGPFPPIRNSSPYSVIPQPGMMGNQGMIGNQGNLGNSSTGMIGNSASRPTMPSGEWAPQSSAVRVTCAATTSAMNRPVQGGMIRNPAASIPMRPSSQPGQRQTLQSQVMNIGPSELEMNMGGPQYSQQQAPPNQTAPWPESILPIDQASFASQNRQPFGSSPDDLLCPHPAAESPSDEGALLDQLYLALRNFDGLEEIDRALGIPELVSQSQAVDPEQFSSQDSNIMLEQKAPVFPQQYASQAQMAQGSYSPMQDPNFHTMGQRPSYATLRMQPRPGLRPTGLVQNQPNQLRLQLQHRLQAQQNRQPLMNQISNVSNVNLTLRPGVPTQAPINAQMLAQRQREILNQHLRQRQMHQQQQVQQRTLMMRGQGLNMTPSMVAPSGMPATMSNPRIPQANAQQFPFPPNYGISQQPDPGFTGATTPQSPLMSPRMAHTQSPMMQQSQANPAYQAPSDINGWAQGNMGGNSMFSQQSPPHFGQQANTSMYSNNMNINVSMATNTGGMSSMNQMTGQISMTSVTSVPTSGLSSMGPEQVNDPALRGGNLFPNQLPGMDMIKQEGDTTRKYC

[4] = target: Cytochrome P450 2C9 (Homo sapiens, UniProt P11712)
[5] = target: 26S proteasome non-ATPase regulatory subunit 14 (Homo sapiens, UniProt O00487); assay: inhibition of proteasome subunit RPN11 – biochemical, fluorescence polarization, uHTS hits, confirmation (AID 602368); type: functional
[6] = target: 72 kDa type IV collagenase (Homo sapiens, UniProt P08253); assay: Dose Response validation of uHTS RPN11 inhibitor hits using a MMP-2 Fluorescence assay.; type: functional
72 kDa type IV collagenase, sequence (P08253 whole entry): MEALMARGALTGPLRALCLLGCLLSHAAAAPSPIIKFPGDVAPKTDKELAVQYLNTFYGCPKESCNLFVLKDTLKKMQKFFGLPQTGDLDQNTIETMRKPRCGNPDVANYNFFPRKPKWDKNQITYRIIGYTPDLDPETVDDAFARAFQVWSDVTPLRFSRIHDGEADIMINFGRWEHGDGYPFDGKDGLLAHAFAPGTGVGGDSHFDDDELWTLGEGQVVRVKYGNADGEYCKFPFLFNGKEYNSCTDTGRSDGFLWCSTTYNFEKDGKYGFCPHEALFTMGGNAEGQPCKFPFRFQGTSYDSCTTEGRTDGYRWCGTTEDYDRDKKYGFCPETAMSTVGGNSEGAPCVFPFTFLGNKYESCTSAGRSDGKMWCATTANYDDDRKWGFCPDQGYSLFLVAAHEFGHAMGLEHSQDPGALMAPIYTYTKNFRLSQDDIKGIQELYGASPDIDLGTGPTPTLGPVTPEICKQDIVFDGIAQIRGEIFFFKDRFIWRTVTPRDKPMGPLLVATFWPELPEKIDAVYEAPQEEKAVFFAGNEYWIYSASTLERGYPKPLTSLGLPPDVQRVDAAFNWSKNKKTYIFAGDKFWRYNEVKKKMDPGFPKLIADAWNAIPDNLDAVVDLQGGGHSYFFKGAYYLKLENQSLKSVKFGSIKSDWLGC

[7] = target: Prothrombin (Bos taurus, UniProt P00735); assay: thrombin inhibition, dose response, biochemical, fluorescence polarization, uHTS hits (AID 602369); type: functional
[8] = target: T1, Microphthalmia-associated transcription factor (Homo sapiens, UniProt O75030); assay: TRPM1 promoter luciferase signal decrease, dose response, MITF inhibitor project, cell-based, SK-MEL-5, cherry-picked, set 3 (AID 493073); type: functional
T1 sequence (O75030 whole entry): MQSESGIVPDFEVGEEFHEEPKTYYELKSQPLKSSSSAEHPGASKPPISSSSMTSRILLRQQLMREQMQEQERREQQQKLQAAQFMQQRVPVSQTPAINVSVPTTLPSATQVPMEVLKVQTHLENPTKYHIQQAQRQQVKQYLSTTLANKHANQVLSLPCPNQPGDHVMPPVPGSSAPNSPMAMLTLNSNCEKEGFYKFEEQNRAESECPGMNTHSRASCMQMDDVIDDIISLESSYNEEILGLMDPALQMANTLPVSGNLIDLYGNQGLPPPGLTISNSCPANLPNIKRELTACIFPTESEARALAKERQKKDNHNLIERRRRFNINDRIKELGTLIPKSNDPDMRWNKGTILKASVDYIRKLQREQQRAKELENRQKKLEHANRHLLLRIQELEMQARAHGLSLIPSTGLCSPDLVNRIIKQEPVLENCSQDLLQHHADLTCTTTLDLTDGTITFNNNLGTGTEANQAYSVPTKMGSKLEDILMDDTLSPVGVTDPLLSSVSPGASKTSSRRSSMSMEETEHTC

[9] = target: T2, Replicative DNA helicase DnaB (Mycobacterium tuberculosis, UniProt P9WMR3); assay: DnaB intein splicing inhibitors, dose response, biochemical, cell-free fluorescence (AID 449749); type: functional
T2 sequence (P9WMR3 whole entry): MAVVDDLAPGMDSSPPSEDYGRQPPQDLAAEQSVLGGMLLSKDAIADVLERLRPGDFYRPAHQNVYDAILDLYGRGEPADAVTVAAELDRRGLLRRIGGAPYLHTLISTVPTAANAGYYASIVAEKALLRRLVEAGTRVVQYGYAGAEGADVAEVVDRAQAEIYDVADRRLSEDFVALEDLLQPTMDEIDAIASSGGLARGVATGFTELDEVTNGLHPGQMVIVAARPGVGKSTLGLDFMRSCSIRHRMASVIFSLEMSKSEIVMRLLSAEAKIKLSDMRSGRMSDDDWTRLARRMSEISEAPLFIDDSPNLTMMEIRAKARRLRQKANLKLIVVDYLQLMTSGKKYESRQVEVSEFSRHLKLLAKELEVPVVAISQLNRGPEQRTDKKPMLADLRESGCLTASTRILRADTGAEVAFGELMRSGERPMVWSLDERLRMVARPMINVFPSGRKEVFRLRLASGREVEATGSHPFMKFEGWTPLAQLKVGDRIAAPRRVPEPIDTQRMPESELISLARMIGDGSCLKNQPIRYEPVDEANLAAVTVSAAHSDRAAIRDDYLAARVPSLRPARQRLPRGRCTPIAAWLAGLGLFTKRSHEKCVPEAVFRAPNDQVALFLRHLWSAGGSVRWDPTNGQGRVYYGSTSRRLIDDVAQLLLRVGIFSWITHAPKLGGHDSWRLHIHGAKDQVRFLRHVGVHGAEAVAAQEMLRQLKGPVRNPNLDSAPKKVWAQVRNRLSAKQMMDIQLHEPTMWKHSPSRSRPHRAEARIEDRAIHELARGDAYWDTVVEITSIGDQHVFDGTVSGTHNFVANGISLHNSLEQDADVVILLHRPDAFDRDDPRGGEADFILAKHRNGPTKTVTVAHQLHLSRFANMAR

[10] = target: T3, Protein RecA (Mycobacterium tuberculosis, UniProt P9WHJ3); assay: Fluorescence Cell-Free Homogeneous Dose Retest to Identify Inhibitors of RecA-Intein Splicing Activity. [Related pubchem assays (depositor defined):AID2097, AID2223, AID489010, AID492950]; type: functional
T3 sequence (P9WHJ3 whole entry): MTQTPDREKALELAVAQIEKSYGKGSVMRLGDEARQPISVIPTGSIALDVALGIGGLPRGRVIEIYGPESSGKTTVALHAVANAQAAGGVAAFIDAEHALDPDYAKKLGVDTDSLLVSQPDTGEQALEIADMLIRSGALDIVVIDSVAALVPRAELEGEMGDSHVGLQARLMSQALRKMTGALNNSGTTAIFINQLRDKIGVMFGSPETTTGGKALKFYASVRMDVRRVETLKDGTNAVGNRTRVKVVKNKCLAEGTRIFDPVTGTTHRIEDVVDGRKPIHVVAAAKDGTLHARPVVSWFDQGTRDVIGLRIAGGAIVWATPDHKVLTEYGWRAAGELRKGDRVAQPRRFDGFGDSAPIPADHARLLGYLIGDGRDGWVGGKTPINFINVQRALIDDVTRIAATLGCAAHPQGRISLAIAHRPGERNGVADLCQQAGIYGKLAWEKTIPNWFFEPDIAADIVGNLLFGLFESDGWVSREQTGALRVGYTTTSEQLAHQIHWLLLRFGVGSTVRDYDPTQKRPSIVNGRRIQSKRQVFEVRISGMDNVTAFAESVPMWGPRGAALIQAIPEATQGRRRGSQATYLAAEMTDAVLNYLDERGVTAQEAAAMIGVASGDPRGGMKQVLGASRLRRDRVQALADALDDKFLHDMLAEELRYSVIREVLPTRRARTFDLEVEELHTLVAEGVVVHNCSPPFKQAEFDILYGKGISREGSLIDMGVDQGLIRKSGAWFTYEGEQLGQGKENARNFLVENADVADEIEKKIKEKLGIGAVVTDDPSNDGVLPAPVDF

[11] = target: T4, Fatty acid synthase (Homo sapiens, UniProt P49327); assay: FAS thioesterase domain inhibitors, dose response, biochemical, endpoint fluorescence intensity, uHTS hits (AID 624327); type: functional;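 further: fluorescence from hydrolysis of an O-methyl fluorescein acyl ester substrate by the enzyme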
[12] = target: T4, Fatty acid synthase; assay: FAS thioesterase domain inhibitors, dose response, biochemical, kinetic fluorescence intensity (AID 624326); type: functional;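 further: rate of fluorescence rise from hydrolysis of a fluorogenic O-methyl fluorescein ester substrate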
[13] = tested on: HEK293; assay: inhibitors of LMP1-driven NF-kB reporter, dose response, cell-based, HEK293, luciferase, cherry-pick (AID 588343); type: functional; details: Homo sapiens
[14] = tested on: HeLa; assay: HeLa cell cytotoxicity, dose response, cytotoxicity control for MITF activator project, CellTiter-Glo luminescence, cherry-pick samples (AID 540259); type: functional, cell-based; details: Homo sapiens
[15] = inhibitors of intracellular T. cruzi replication, confirmation, NIH3T3 host cells, beta-gal luminescence (AID 2044); type: functional, cell-based;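 further: intracellular parasites grown in NIH/3T3 mouse fibroblasts as host cells; luminescent beta-galactosidase reporter signal from transgenic T. cruzi replicating inside host cells; inhibitors lower the luminescence signal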
[16] = cytotoxicity toward NIH3T3 fibroblasts, dose response, counter-screen, cell-based, ATP luminescence, mouse fibroblasts (AID 2010); type: functional;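 further: cells exposed to compound for about 90 hours before reading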
[17] = Luminescence Cell-Based Dose Retest to Confirm Inhibitors of Cancer Stem Cells. [Related pubchem assays (depositor defined):AID2717, AID2721]; type: functional; details: Homo sapiens
[18] = target: T5, Cytochrome P450 3A4 (Homo sapiens, UniProt P08684);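 further: CYP3A4 tested as one member of a cytochrome P450 panel screen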
T5 sequence (P08684 whole entry): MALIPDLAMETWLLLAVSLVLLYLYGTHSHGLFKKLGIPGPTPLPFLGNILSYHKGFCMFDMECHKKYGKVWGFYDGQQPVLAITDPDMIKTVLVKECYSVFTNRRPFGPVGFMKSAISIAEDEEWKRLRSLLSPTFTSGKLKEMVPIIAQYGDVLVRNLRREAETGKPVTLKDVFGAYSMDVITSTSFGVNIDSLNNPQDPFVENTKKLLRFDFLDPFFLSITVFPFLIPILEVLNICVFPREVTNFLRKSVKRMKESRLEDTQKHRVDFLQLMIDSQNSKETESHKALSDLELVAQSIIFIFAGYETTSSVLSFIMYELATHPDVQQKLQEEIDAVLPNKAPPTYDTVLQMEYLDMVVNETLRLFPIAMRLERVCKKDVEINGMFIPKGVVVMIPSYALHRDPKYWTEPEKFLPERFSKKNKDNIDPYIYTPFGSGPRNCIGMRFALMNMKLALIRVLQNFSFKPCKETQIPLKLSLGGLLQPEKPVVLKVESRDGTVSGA

[19] = tested on: INS1; assay: beta cell apoptosis inhibitors, cytokine rescue, dose response, luminescence, retest (AID 449756); type: functional, cell-based; details: Rattus norvegicus;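 further: cell death triggered by IL-1 beta plus TNF-alpha plus IFN-gamma mixture; protective hits raise ATP signal compared with cytokine alone wells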
[20] = Shn3 3'UTR reporter inhibitors, dose response, cell-based, Clone20 osteoblasts, firefly luciferase, cherry-picked (AID 624132); type: functional;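 further: firefly luciferase luminescence from reporter carrying the Shn3 3'UTR in osteoblasts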
[21] = HepG2 cell cytotoxicity, dose response, cytotoxicity control for Shn3 inhibitor project, CellTiter-Glo, cherry-picked (AID 624134); type: functional, cell-based
[22] = control 3'UTR Renilla luciferase suppression, dose response, counter-screen for Shn3 inhibitor project, cell-based, Clone20-Shn3RL, cherry-picked (AID 624133); type: functional
[23] = target: T5, Cytochrome P450 3A4; remark: listed apart in the source

## O=c1c2c(-c3cccs3)csc2[nH]c(=S)n1-c1ccccc1
[1]
  EC50: 12.8 µM (inactive)
[2]
  EC50: > 79.4 µM (not active)
[3]
  EC50: 11.6 µM (not active)
[4]
  AC50: 8.91 µM (inconclusive)

## Cc1cccc2sc(NC(=O)C3CCCN(S(=O)(=O)c4cccc5nonc45)C3)nc12 (stereo not given)
[5]
  IC50: 25.9 µM (active)
[6]
  IC50: > 100 µM (inactive)
[7]
  IC50: 26.2 µM (active)

## COc1cc2c(cc1OC)C1=NC(=O)CN1C(SCc1ccccc1C)=N2
[1]
  EC50: > 79.4 µM (inactive)
[2]
  EC50: > 79.4 µM (not active)
[3]
  EC50: 82.7 µM (not active)

## CC(=O)N(C1CC(C)C(C#N)(C#N)C1(C#N)C#N)N(C)C (stereo not given)
[8]
  AC50: 9.24 µM (active)
[9]
  AC50: 1.68 µM (active)
[10]
  EC50: 3.17 µM (active)
[11]
  IC50: 8.68 µM (active)
[12]
  IC50: 6.1 µM (active)

## COc1cccc(C(=O)CC(=O)C(=O)Nc2ccc(C)cc2Cl)c1
[13]
  AC50: 35 µM (active)

## CC(C)(C)C(=O)c1cnc(Nc2ccccc2Cl)s1
[14]
  AC50: 121 µM (active)

## CCOC(=O)c1c(NC(=O)C(c2ccccc2)c2ccccc2)sc2c1C1CCN2CC1.Cl
[15]
  EC50: 1.86 µM (active)
[16]
  EC50: > 60 µM (not active)
[17]
  AC50: 1.09 µM (active)
[18]
  AC50: inconclusive

## O=C(Nc1ccc(-c2nc3ccccc3o2)cc1)c1ccc(N2CCOCC2)c([N+](=O)[O-])c1
[15]
  EC50: 1.93 µM (active)
[16]
  EC50: > 60 µM (not active)
[19]
  AC50: 5.18 µM (active)
[20]
  AC50: 3.35 µM (active)
[21]
  AC50: > 70 µM (inactive)
[22]
  AC50: 3.62 µM (active)
[23]
  AC50: 11.2 µM (inconclusive)
[4]
  AC50: 2.82 µM (inconclusive)

## O=C(CC1OC(=O)c2ccccc21)Nc1cc(Cl)ccc1N1CCCC1 (stereo not given)
[5]
  IC50: 14.1 µM (active)
[6]
  IC50: > 100 µM (inactive)
[7]
  IC50: > 100 µM (inactive)

## Cc1cc(C(=O)OCC(=O)c2ccc(Br)s2)c(C)o1
[1]
  EC50: > 79.4 µM (inactive)
[2]
  EC50: > 79.4 µM (not active)
[3]
  EC50: 14.6 µM (not active)

Source: ChEMBL document CHEMBL1201862, “PubChem BioAssay data set” (2004)
